pIC50: −log10 of the molar value.
Key:
Type in all cases: biochemical
Rsk1 = Rsk1 (Homo sapiens (Human), UniProt Q15418); experiment: Inhibitory effects on Rsk1 kinase activity (QSS Assist FP assay kit); details: Rsk1, ATP 30 μM; read-out: Rsk inhibitory activity IC50
Experimental: Inhibitory activity of the compound according to the present invention on Rsk1 kinase activity in vitro was assayed using the QSS Assist™ FP assay kit (Carna Biosciences, Inc.).
In the inhibition assay of inhibitory activity of the compound, the test compound was diluted by serial dilution with dimethyl sulfoxide (DMSO). Subsequently, an Rsk1 protein, a substrate peptide (final concentration: 100 nM), magnesium chloride (final concentration: 10 mM), ATP (final concentration: 30 μM), and the solution of the test compound in DMSO (DMSO final concentration: 5%) were added to the kinase reaction buffer (20 mM HEPES (pH 7.4), 2 mM dithiothreitol, 0.01% Tween-20), and the mixture was incubated at 25° C. for 40 minutes to perform the kinase reaction. The IMAP Progressive Binding Reagent diluted to 400-fold with the IMAP Progressive Binding Buffer A (Molecular Devices, LLC) was added to terminate the kinase reaction.

S6K1 = S6K1 (Homo sapiens (Human), UniProt P23443); experiment: Inhibitory effects on S6K1 kinase activity (QSS Assist FP assay kit); details: S6K1, ATP 25 μM; read-out: S6K inhibitory activity IC50
Experimental: Inhibitory activity of the compound according to the present invention on S6K1 kinase activity in vitro was assayed using the QSS Assist™ FP assay kit (Carna Biosciences, Inc.).
In the inhibition assay for inhibitory activity of the compound, the test compound was diluted by serial dilution with dimethyl sulfoxide (DMSO). Subsequently, an S6K protein, a substrate peptide (final concentration: 100 nM), magnesium chloride (final concentration: 5 mM), ATP (final concentration: 25 μM), and the solution of the test compound in DMSO (final DMSO concentration: 5%) were added to the kinase reaction buffer (20 mM HEPES (pH 7.4), 2 mM dithiothreitol, 0.01% Tween-20), and the mixture was incubated at 25° C. for 30 minutes to perform the kinase reaction. The IMAP Progressive Binding Reagent diluted to 400-fold with the IMAP Progressive Binding Buffer A (Molecular Devices, LLC) was added thereto to terminate the kinase reaction. The reaction product was allowed to stand at room temperature in the dark for 120 minutes and assayed with the use of PHERAstar (BMG LABTECH; excitation wavelength: 485 nm; detection wavelength: 520 nm). The level of phosphorylation reaction was determined based on the degree of fluorescence polarization, and the concentration of the compound at which phosphorylation could be inhibited by 50% was defined as the IC50 level (nM) and shown in Table 4.

human Akt1 = human Akt1 (Homo sapiens (Human), UniProt P31749); experiment: Inhibitory effects on Akt1 kinase activity (TR-FRET, biotinylated Crosstide); details: Akt1, ATP 150 μM, pre-incubation 120 minutes at 25° C.; read-out: AKT inhibitory activity IC50
Experimental: Akt1 was prepared and assays of inhibitory activity of the compound according to the present invention against Akt1 kinase activity in vitro were conducted according to the method described in Biochem. J., vol. 385, pp. 399-408, 2005 and Cancer Res., vol. 68, pp. 2366-2374, 2008. In the preparation of Akt1 protein, human Akt1 tagged with the middle T antigen was expressed in an insect cell Sf9, Akt1 was prepared through affinity purification and activation by PDK1, and the resultant was stored at −80° C. until the inhibition assays of the compounds. In the inhibition assay of the compounds, Akt1 and the compound according to the present invention were subjected to pre-incubation at 25° C. for 120 minutes in a reaction buffer (15 mM Tris-HCl, pH 7.5, 0.01% Tween-20, 2 mM DTT). Subsequently, biotinylated Crosstide (biotin-[…], Millipore), MgCl2, and ATP were added as substrates at the final concentration of 500 nM, 10 mM, and 150 μM, respectively, and the reaction was allowed to proceed at 25° C. for 60 minutes. EDTA was added to the final concentration of 40 mM to terminate the reaction, a detection liquid containing the Eu-anti-phospho-Crosstide antibody (PerkinElmer) and SureLight APC-SA (PerkinElmer) at the final concentration of 0.5 nM and 62.5 nM, respectively was added, and the reaction was allowed to proceed at room temperature for 2 hours. In the end, the fluorescence levels irradiated with an excitation light of 337 nm were assayed at two different wavelength levels (i.e., 620 nm and 665 nm) using PI-HERAstar FS (BMG LABTECH) or PHERAstar (BMG LABTECH). The level of the phosphorylation reaction was determined on the basis of the ratio of fluorescence levels at two wavelength levels, and the concentration of the compound at which phosphorylation could be inhibited by 50% was defined as the IC50 level (nM) and shown in Table 2.
As reference compounds, conventional Comparative Example A (WO 2010/056563 (Example 31)) and Comparative Example B having inhibitory activity against Akt were used.

S6K1, sequence (P23443 whole entry): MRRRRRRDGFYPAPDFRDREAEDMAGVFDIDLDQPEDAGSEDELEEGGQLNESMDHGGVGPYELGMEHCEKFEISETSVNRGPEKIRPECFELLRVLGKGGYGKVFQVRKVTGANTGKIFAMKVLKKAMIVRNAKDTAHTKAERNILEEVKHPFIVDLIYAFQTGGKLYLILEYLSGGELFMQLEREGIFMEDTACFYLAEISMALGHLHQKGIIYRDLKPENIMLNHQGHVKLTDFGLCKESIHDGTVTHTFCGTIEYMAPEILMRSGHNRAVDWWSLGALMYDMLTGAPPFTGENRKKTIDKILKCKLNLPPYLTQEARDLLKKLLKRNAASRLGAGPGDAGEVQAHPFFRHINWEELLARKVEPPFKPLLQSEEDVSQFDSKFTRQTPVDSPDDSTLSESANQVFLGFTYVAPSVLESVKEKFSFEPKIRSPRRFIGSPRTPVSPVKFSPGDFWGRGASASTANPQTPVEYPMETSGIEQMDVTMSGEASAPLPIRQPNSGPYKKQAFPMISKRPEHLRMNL
Rsk1, sequence (Q15418 whole entry): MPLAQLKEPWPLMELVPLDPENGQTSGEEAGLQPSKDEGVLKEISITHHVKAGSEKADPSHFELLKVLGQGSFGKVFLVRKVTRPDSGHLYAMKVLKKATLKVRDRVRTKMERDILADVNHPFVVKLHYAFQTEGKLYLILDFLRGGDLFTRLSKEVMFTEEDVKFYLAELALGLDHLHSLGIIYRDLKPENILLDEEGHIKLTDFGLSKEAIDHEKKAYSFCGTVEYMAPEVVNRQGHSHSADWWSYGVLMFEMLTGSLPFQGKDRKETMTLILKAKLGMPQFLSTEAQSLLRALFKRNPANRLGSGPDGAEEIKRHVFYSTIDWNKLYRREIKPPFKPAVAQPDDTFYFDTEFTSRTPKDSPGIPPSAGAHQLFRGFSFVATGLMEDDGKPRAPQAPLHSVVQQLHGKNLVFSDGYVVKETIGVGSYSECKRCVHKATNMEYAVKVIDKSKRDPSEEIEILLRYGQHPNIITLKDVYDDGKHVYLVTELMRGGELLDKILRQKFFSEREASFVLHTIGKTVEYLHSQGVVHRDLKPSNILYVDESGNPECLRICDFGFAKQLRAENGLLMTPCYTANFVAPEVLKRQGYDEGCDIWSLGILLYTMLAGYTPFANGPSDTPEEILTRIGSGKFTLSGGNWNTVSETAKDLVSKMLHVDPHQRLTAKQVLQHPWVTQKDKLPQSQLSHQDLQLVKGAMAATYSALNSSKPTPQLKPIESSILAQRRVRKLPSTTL
human Akt1, sequence (P31749 whole entry): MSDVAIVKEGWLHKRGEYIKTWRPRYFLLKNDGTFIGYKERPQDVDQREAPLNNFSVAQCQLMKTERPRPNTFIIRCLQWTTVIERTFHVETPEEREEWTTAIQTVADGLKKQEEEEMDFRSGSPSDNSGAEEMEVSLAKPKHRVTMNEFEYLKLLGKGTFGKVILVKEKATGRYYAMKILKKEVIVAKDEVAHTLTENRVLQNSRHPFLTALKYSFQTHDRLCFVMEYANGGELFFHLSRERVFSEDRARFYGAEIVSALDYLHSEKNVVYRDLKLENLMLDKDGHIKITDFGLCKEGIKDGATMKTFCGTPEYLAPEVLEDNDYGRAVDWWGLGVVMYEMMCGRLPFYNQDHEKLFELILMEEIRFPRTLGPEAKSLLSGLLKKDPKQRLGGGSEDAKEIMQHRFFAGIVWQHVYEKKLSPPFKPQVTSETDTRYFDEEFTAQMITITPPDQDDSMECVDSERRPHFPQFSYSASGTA

Compound	pIC50 (Rsk1)	pIC50 (S6K1)	pIC50 (human Akt1)
CC1C(=O)Nc2ncnc(N3CCC(c4nc(-c5cccnc5F)ccc4NCCN4CCCC4)CC3)c21 (stereo not drawn) [Compound 17, 4-(4-(2′-Fluoro-5-((2-(pyrrolidin-1-yl)ethyl)amino)-[2,3′-bipyridin]-6-yl)piperidin-1-yl)-5-methyl-5H-pyrrolo[2,3-d]pyrimidin-6(7H)-one]	8.96	9.15	9.22
CC(C)NCCNc1ccc(-c2nnc(C(F)(F)F)o2)nc1C1CCN(c2ncnc3c2C(C)(C)C(=O)N3)CC1 [Compound 33, 4-(4-(3-((2-(Isopropylamino)ethyl)amino)-6-(5-(trifluoromethyl)-1,3,4-oxadiazol-2-yl)pyridin-2-yl)piperidin-1-yl)-5,5-dimethyl-5H-pyrrolo[2,3-d]pyrimidin-6(7H)-one]	9.00	9.30	8.60
CC(C)NCCNc1ccc(-c2cnc(F)c(F)c2)nc1C1CCN(c2ncnc3c2C(C)(C)C(=O)N3)CC1 [Compound 5, 4-(4-(5′,6′-Difluoro-5-((2-(isopropylamino)ethyl)amino)-[2,3′-bipyridin]-6-yl)piperidin-1-yl)-5,5-dimethyl-5H-pyrrolo[2,3-d]pyrimidin-6(7H)-one]	9.15	9.52	8.46
CC(C)NCCNc1ccc(-c2noc(C(F)(F)F)n2)nc1C1CCN(c2ncnc3c2C(C)(C)C(=O)N3)CC1 [Compound 42, 4-(4-(3-((2-(Isopropylamino)ethyl)amino)-6-(5-(trifluoromethyl)-1,2,4-oxadiazol-3-yl)pyridin-2-yl)piperidin-1-yl)-5,5-dimethyl-5H-pyrrolo[2,3-d]pyrimidin-6(7H)-one]	8.92	9.30	8.32
CC(C)(C)NCCNc1ccc(-c2nnc(C3CC3)s2)nc1C1CCN(c2ncnc3c2C(C)(C)C(=O)N3)CC1 [Compound 40, 4-(4-(3-((2-(Tert-butylamino)ethyl)amino)-6-(5-cyclopropyl-1,3,4-thiadiazol-2-yl)pyridin-2-yl)piperidin-1-yl)-5,5-dimethyl-5H-pyrrolo[2,3-d]pyrimidin-6(7H)-one]	9.22	9.52	8.44
CC(C)(C)NCCNc1ccc(-c2nnc(C(F)F)s2)nc1C1CCN(c2ncnc3c2C(C)(C)C(=O)N3)CC1 [Compound 37, 4-(4-(3-((2-(Tert-butylamino)ethyl)amino)-6-(5-(difluoromethyl)-1,3,4-thiadiazol-2-yl)pyridin-2-yl)piperidin-1-yl)-5,5-dimethyl-5H-pyrrolo[2,3-d]pyrimidin-6(7H)-one]	9.30	9.52	8.48
CN(CCNc1ccc(-c2nnc(C(F)(F)F)o2)nc1C1CCN(c2ncnc3c2C(C)(C)C(=O)N3)CC1)C(C)(C)C [Compound 34, 4-(4-(3-((2-(Tert-butyl(methyl)amino)ethyl)amino)-6-(5-(trifluoromethyl)-1,3,4-oxadiazol-2-yl)pyridin-2-yl)piperidin-1-yl)-5,5-dimethyl-5H-pyrrolo[2,3-d]pyrimidin-6(7H)-one]	9.05	9.40	9.00
COc1cc(-c2ccc(NCCN3CCCC3)c(C3CCN(c4ncnc5c4C(C)C(=O)N5)CC3)n2)c(F)cn1 (stereo not drawn) [Compound 16, 4-(4-(5′-Fluoro-2′-methoxy-5-((2-(pyrrolidin-1-yl)ethyl)amino)-[2,4′-bipyridin]-6-yl)piperidin-1-yl)-5-methyl-5H-pyrrolo[2,3-d]pyrimidin-6(7H)-one]	9.10	9.15	8.72
CC(C)NCCNc1ccc(-c2cc(Cl)nn2C)nc1C1CCN(c2ncnc3c2C(C)(C)C(=O)N3)CC1 [Compound 11, 4-(4-(6-(3-Chloro-1-methyl-1H-pyrazol-5-yl)-3-((2-(isopropylamino)ethyl)amino)pyridin-2-yl)piperidin-1-yl)-5,5-dimethyl-5H-pyrrolo[2,3-d]pyrimidin-6(7H)-one]	9.15	9.52	8.24
COc1cncc(-c2ccc(NCCN(C)C)c(C3CCN(c4ncnc5c4C(C)C(=O)N5)CC3)n2)c1 (stereo not drawn) [Compound 21, 4-(4-(5-((2-(Dimethylamino)ethyl)amino)-5′-methoxy-[2,3′-bipyridin]-6-yl)piperidin-1-yl)-5-methyl-5H-pyrrolo[2,3-d]pyrimidin-6(7H)-one]	8.89	9.15	8.40
CC1C(=O)Nc2ncnc(N3CCC(c4nc(-c5ccsc5)ccc4NCCN(C)C)CC3)c21 (stereo not drawn) [Compound 23, 4-(4-(3-((2-(Dimethylamino)ethyl)amino)-6-(thiophen-3-yl)pyridin-2-yl)piperidin-1-yl)-5-methyl-5H-pyrrolo[2,3-d]pyrimidin-6(7H)-one]	8.82	9.40	9.15
CC1C(=O)Nc2ncnc(N3CCC(c4nc(-c5cc(C(F)(F)F)nn5C)ccc4NCCN4CCCC4)CC3)c21 (stereo not drawn) [Compound 20, 5-Methyl-4-(4-(6-(1-methyl-3-(trifluoromethyl)-1H-pyrazol-5-yl)-3-((2-(pyrrolidin-1-yl)ethyl)amino)pyridin-2-yl)piperidin-1-yl)-5H-pyrrolo[2,3-d]pyrimidin-6(7H)-one]	9.05	9.22	9.22
CC1C(=O)Nc2ncnc(N3CCC(c4nc(-c5cncc(F)c5)ccc4NCCN4CCCC4)CC3)c21 (stereo not drawn) [Compound 19, 4-(4-(5′-Fluoro-5-((2-(pyrrolidin-1-yl)ethyl)amino)-[2,3′-bipyridin]-6-yl)piperidin-1-yl)-5-methyl-5H-pyrrolo[2,3-d]pyrimidin-6(7H)-one]	9.05	9.30	9.40
CC(C)NCCNc1ccc(-c2nnc(C(F)F)s2)nc1C1CCN(c2ncnc3c2C(C)(C)C(=O)N3)CC1 [Compound 39, 4-(4-(6-(5-(Difluoromethyl)-1,3,4-thiadiazol-2-yl)-3-((2-(isopropylamino)ethyl)amino)pyridin-2-yl)piperidin-1-yl)-5,5-dimethyl-5H-pyrrolo[2,3-d]pyrimidin-6(7H)-one]	9.22	9.52	8.39
CC(C)(C)NCCNc1ccc(-c2nc(C(F)(F)F)no2)nc1C1CCN(c2ncnc3c2C(C)(C)C(=O)N3)CC1 [Compound 43, 4-(4-(3-((2-(Tert-butylamino)ethyl)amino)-6-(3-(trifluoromethyl)-1,2,4-oxadiazol-5-yl)pyridin-2-yl)piperidin-1-yl)-5,5-dimethyl-5H-pyrrolo[2,3-d]pyrimidin-6(7H)-one]	9.40	9.40	9.00

Source: patent US10538528B2, “5H-pyrrolo[2,3-D]pyrimidin-6(7H)-one derivative” (Taiho Pharmaceutical Co., Ltd., priority 2016, dated 2020)
